From patent publication US12115209B2, “ROMO1-derived antimicrobial peptides including lysine substitution and variants thereof” (KOREA UNIVERSITY RESEARCH AND BUSINESS FOUNDATION, priority 2019, dated 2024)
No end group written: not given here.

Experiments:
[1] = test system: Staphylococcus aureus, Pseudomonas aeruginosa, Klebsiella pneumoniae and Acinetobacter baumannii; assay: Survival rate of mice injected with gram-positive or gram-negative bacteria; type: in vivo, mice (C57BL/6); settings: mice injected with gram-positive or gram-negative bacteria (FIG. 3)
Description: Following Example 2-2, in order to evaluate the antibacterial activity of the KU-5878 peptide in vivo, Staphylococcus aureus as gram-positive bacteria, Pseudomonas aeruginosa, Klebsiella pneumoniae and Acinetobacter baumannii as gram-negative bacteria, and multidrug-resistant Pseudomonas aeruginosa, methicillin-resistant Staphylococcus aureus, multidrug-resistant Klebsiella pneumoniae and multidrug-resistant Acinetobacter baumannii as multidrug-resistant bacteria were selected, and the following experiment was performed.
The experimental method is as described in Example 2-2 above. For a positive group, each type of the bacteria was injected into mice, and after 24 hours, 30 mg/kg of imipenem, a carbapenem-based antibiotic, was injected intraperitoneally (IP), and then the same amount of imipenem was administered intraperitoneally a total of 4 times at 12-hour intervals. The survival rates of each control group and the experimental group were measured at 24-hour intervals.

mouse red blood cells = type: cell-based
Description: Red blood cells were diluted with PBS, centrifuged 3 times at 900 g for 10 minutes, and washed. 100 μl of the diluted red blood cell solution (10% v/v PBS) was dispensed into each well of a 96-well microplate, and KU-5878, KU-5878-K4, KU-5878-K4-D, melittin, magainin 2 or daptomycin was added to each well which was then filled with PBS to 200 μl, followed by reaction by incubation at 37° C. for 1 hour. Then, the supernatant of the reaction solution was separated, and the absorbance at a wavelength of 550 nm was measured using a spectrophotometer. As control, PBS and 0.1% Triton X-100 (Triton X-100) solution were used.
Based on the results of measurement of the absorbance, the degree of red blood cell destruction was calculated according to Equation 1 below, and the results of the calculation are shown in FIG. 6. % The intact RBC=100(%)−[(absorbance of peptide-treated red blood cell solution−absorbance of PBS-treated red blood cell solution)/(absorbance of Triton X-100-treated red blood cell solution−absorbance of PBS-treated red blood cell solution)×100(%)] [Equation 1]

[2] = test system: Human vascular endothelial cells (HUVECs); assay: Toxicity to human vascular endothelial cells (MTT); type: cell-based; settings: 0 μg/ml to 300 μg/ml
Description: PBS was used as a control.
The HUMEC medium was replaced with fresh medium, and KU-5878, melittin or magainin 2 were dispensed at various concentrations (0 μg/ml to 300 μg/ml). Then, each well was treated with 100 μl of MTT reagent and incubated at 37° C. for 2 hours. Then, the medium and the peptide were carefully removed so as not to separate the cells, and 100 μl of DMSO (dimethyl sulfoxide) was added to each well, and the absorbance at a wavelength of 570 nm was measured using a spectrophotometer. Relative cell viability was calculated as a percentage of the viability of untreated control cells.

CRPA = assay: Minimum bactericidal concentration (MBC) assay; type: cell-based; settings: Tables 11-21, no unit printed
[3] = test system: Pseudomonas aeruginosa (ATCC 27853); assay: Minimum bactericidal concentration (MBC) assay; type: cell-based; settings: Tables 11-21, no unit printed
Outline: (§1)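 Strains were cultured in 3% TSB at 37° C and brought to 2×10^5 CFU/ml in SP buffer. This suspension was mixed with peptide (0–300 μg/ml) for 1 h at 37° C. Reaction mixtures were then plated on TS agar and incubated 18 h.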

[4] = Toxicity in vivo (survival and weight after intravenous injection); parameters: species or system mouse (C57BL/6); settings: 100 mg/kg intravenous
Description: At this time, the maximum volume of the injection dose was 150 μl.

[5] = test system: Methicillin-resistant Staphylococcus aureus (MRSA, ATCC 33591); assay: Minimum bactericidal concentration (MBC) assay; type: cell-based; settings: Tables 11-21, no unit printed
Outline: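 Peptide at 0 to 300 μg/ml reacted 1 h at 37 °C with 1×10^5 CFU/ml bacteria in SP buffer (10 mM sodium phosphate, 1% TSB), bacteria pre-grown in 3% TSB. Aliquots then spread on TS agar and checked for colonies after 18 h at 37 °C.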

[6] = test system: Staphylococcus aureus (ATCC 29213); assay: Minimum bactericidal concentration (MBC) assay; type: cell-based; settings: Tables 11-21, no unit printed
Outline: as §1

Question: With KTMMQSGGTFGTFMAIGMGIR [KU-5878] as the sequence, how does the survival rate [1] read?
Answer: 60%

Question: What about the “hemolysis of red blood cells” value (mouse red blood cells) of the same sequence?
Answer: little hemolysis even at a high concentration

Question: And the “toxicity to the HUVECs (relative cell viability, MTT)” value [2]?
Answer: very low toxicity

Question: What about the MBC CRPA (CRPA) of the same sequence?
Answer: 110 µg/mL

Question: And the MBC Pseudomonas aeruginosa [3]?
Answer: 100 µg/mL

Question: And the “effect on the weight of the mice” value ([4]; 24-hour intervals for 12 days)?
Answer: no effect on the weight

Question: What about the “survival of mice after injection” value ([4]; observed 12 days) of the same sequence?
Answer: all survived

Question: What about the MBC MRSA [5] of the same sequence?
Answer: 110 µg/mL

Question: And the MBC MRSA ([5]; listed as 5878)?
Answer: 100 µg/mL

Question: What about the MBC Staphylococcus aureus [6] of the same sequence?
Answer: 100 µg/mL
